The structures appear in SMILES notation.

This passage reports pKa results from the pKa sets of Baltruschat and Czodrowski (2020).

Broadly, the pKa is the pH at which an ionisable group is half protonated. Read a low pKa as a stronger acid or weaker base.

In turn, `CC1=Nc2ccccc2N=C(C)C1` gave a pKa (basic group) of 3.85.

Regarding `C[N+]1(CCCC(=O)O)CCCCC1`, the pKa (acidic group) came to 4.11.

For the setting “acidic group”, `C[n+]1cccc2c3ccccc3[nH]c21` came in with a pKa of 7.4.

For `Cc1ccc(Cl)cc1/C(=N/CCCN(C)C)c1ccccc1`, the pKa (basic group) came to 8.8.

For `Cc1cc(N)nc2ccc3ccccc3c12`, the pKa (basic group) worked out at 7.14.

On to `OCc1cccc(CO)c1O`, for which the pKa (acidic group) stood at 9.66.

For `COc1cccc(=O)c(O)c1`, the pKa (acidic group) was determined as 7.24.

In the case of `Nc1cc[nH+]c2c1ncn2CCOCP(=O)([O-])O`, for the setting “acidic group”, the pKa was found to be 7.1.

Where the note is “basic group”, `C[C@H]1[C@@H](N)[C@@H](C)[C@@H]([NH3+])[C@@H](C)[C@H]1N` had a pKa of 6.73.

Take `N#CC(C#N)=NNc1ccc(/N=N/c2ccccc2)cc1`: the pKa runs as follows: (acidic group) 7.33; (basic group) -0.87.

For `FC(F)(F)c1ccc2cccnc2c1`, the pKa (basic group) was found to be 3.16.

As for `Cc1[nH]c(-c2ccccc2S)[nH+]c1C`, the pKa (acidic group) was determined as 3.9.

Molecule `N[C@@H](CCC(=O)[O-])C(=O)[O-]` registered a pKa (basic group) of 9.33.

Regarding `NS(=O)(=O)C(F)(F)Br`, the pKa (acidic group) amounted to 6.53.

For `Cn1cnc2nc([O-])nc(O)c21`, the pKa (acidic group) came to 10.6.

Molecule `CC/C=C/Cc1[nH+]ccn1[C@H](C(=O)O)C(C)(C)S` had a pKa (acidic group) of 2.

Turning to `C/C(=N/c1ccccc1O)c1ccccc1O`, the pKa reads like this: (acidic group) 9.23; (basic group) 5.14.

`CCc1nnn[nH]1` displayed a pKa (acidic group) of 5.59.

For the molecule `O=C(O)[C@H](O)c1cccc([N+](=O)[O-])c1`, the pKa (acidic group) was 3.03.

For the molecule `CNC(=O)c1ccncc1`, the pKa (basic group) came to 3.8.

Regarding `CN(C)CCCNc1ccnc2ccccc12`, the pKa (basic group) was determined as 8.85.

Turning to `COc1ccc(/C=C\C(=O)O)cc1`, where the note is “acidic group”, the pKa stood at 4.03.

Regarding `C=C(C)C1=C(O)CC(C)CC1` (stereo not drawn), the pKa (acidic group) amounted to 11.9.

`CCc1cc(CC)c(OC)c(C(=O)NC[C@H]2CCCN2CC)c1[O-]` returned a pKa (basic group) of 9.54.

For `COc1cc(C(=O)O)ccc1C`, the pKa (acidic group) was 4.13.

For `Cc1cccc(Br)c1C(=O)O`, the pKa (acidic group) amounted to 2.71.

As for `CC(=O)CC(=O)c1ccccc1`, the pKa (acidic group) came to 8.69.

Under “basic group”, `Cc1ccc(S(=O)(=O)N(C)CCC(=N)N)cc1` showed a pKa of 11.5.

In the case of `CN1CCCC1c1ccccc1` (stereo not drawn), the pKa (basic group) came to 8.8.

`CCCCNc1ncnc2[nH]ncc12`: the pKa (acidic group) worked out at 11.2 and the pKa (basic group) is 4.67.

Take `O=C([O-])CSc1nc2cc3c(cc2[nH]1)CCCC3`: under “basic group”, the pKa came to 5.2.

Turning to `Cc1c(Cl)cccc1C(=O)O`, the pKa (acidic group) turned out to be 3.43.

`CCc1ccc(C)nn1` had a pKa (basic group) of 4.17.

Consider `CCCC[C@H](N)C(=O)[O-]`, for which the pKa (basic group) stood at 9.76.

`O=C([O-])CC(c1ncc[nH]1)c1[nH]cc[nH+]1` registered a pKa (basic group) of 4.62.

The molecule `O=C([O-])Cc1nc2ccccc2[nH]1` registered a pKa (basic group) of 4.1.

`CC[C@]12CCC[NH+]3CC[C@@]4(c5cccc(OC)c5N[C@H]4CC1)[C@@H]32` had a pKa (basic group) of 2.7.

As to `CCc1ccc(N)cc1`, the pKa (basic group) was 5.16.

Molecule `CCn1cncn1` yielded a pKa (basic group) of 2.39.

With `c1ccc(-c2ccccn2)nc1`, the pKa (basic group) stood at 4.42.

The molecule `CC[NH+]1CCC[C@@H]1CNC(=O)c1c(O)c(Cl)cc(Cl)c1OC` registered a pKa (acidic group) of 5.75.

`O=C([O-])c1c2cccc1COCCOCc1ncc([nH]1)COCCOC2` registered a pKa (basic group) of 7.05.

Molecule `CC(=O)c1ccccc1C(=O)O` gave a pKa (acidic group) of 4.15.

In the case of `[O-]c1cc[nH+]cc1O`, the pKa (acidic group) was found to be 9.6.

In the case of `Cc1cccc(OC(O)(CBr)c2ccccc2)c1` (stereo not drawn), the pKa (acidic group) was determined as 11.2.

Take `Nc1ccc(Oc2ccc(N)cc2)cc1`: the pKa (basic group) was 5.18.

Molecule `CCOc1ccc2[nH]c(CC(C)C)nc2c1` gave a pKa (basic group) of 6.07.

On to `CN(C)CC(CSC#N)SC#N` (stereo not drawn), for which the pKa (basic group) was determined as 6.1.

Where the note is “basic group”, `[O-]c1[nH+]cnc2nc[nH]c12` returned a pKa of 1.99.

In turn, `CC(=O)CC(=O)C(C)C` came in with a pKa (acidic group) of 9.46.

As to `Oc1ccc2ccc3ccccc3c2c1`, the pKa (acidic group) came out at 9.28.

`CCCN(CC)C(CC)C(=O)Nc1c(C)cccc1C` (stereo not drawn) came in with a pKa (basic group) of 6.62.

`O=C(O)c1csc(Cl)n1` came in with a pKa (acidic group) of 3.3.

On to `CC(=O)NNC1CCN(C)CC1`, for which the pKa (basic group) came to 8.7.

`Cc1cc(C)cc(C(=N)c2ccccc2)c1`: the pKa (basic group) was 6.82.

Take `CCCC(=O)c1cc(C(C)=O)n[nH]1`: the pKa (acidic group) worked out at 9.28.

`CCc1ccc(O)c(C(C)C)c1` had a pKa (acidic group) of 10.8.

Where the note is “acidic group”, `Cc1nc2c(=O)[nH]c(=O)[nH]c2n1C` returned a pKa of 6.2.

Turning to `COc1cnccc1C(O)O`, the pKa (acidic group) came to 11.7.

For the setting “acidic group”, `O=C1NC(=O)C(c2ccccc2)C1=O` (stereo not drawn) showed a pKa of 3.4.

Molecule `O=[N+]([O-])c1ccc2[nH]ncc2c1` returned a pKa (basic group) of 0.13.

For `O=C(c1ccccc1)c1ccccc1O`, the pKa (acidic group) was 9.3.

In the case of `Nc1c(C(=O)[O-])ncn1[C@H]1O[C@@H](CO)[C@H](O)[C@@H]1O`, the pKa (basic group) came out at 5.9.

With `CC(CN1CCCCC1)C(C#N)(c1ccccc1)c1ccccc1` (stereo not drawn), the pKa (basic group) was determined as 7.54.

For the molecule `O=C([O-])c1ccc([N+](=O)[O-])c2cccnc12`, the pKa (basic group) is 4.67.

`Cc1cc(N)cc(C)c1C(=O)NCCN1CCOCC1` returned a pKa (basic group) of 5.96.

`CC(Cl)C(=O)O` (stereo not drawn) returned a pKa (acidic group) of 2.88.

In turn, `N#Cc1nn[nH]c1C#N` came in with a pKa (acidic group) of 1.47.

The molecule `CCc1cnc(C(=O)[O-])cc1CC` displayed a pKa (basic group) of 6.58.

As for `O=Cc1ccccn1`, for the setting “basic group”, the pKa came out at 3.86.

Under “basic group”, `NCCCCC(=O)[O-]` returned a pKa of 10.8.

Turning to `Cc1c(Cl)ccc2c1nnn2O`, for the setting “acidic group”, the pKa turned out to be 4.09.

The molecule `O=CN1CCNCC1` came in with a pKa (basic group) of 7.98.

`CC1CC(=O)CC(=O)O1` (stereo not drawn) displayed a pKa (basic group) of 5.1.

`Cc1ccc2c(c1O)-c1c-2ccc(C)c1O`: the pKa (acidic group) was determined as 8.04.

`O=C([O-])c1cnc2ccccc2c1` had a pKa (basic group) of 4.68.

In the case of `NC(=O)[C@H](N)[C@H](O)C(=O)O`, the pKa was 2.31 (acidic group) and 7.17 (basic group).

With `CN(O)C(=O)c1ccc([N+](=O)[O-])cc1`, where the note is “acidic group”, the pKa is 7.92.

With `Cc1cnncc1C`, the pKa (basic group) was found to be 4.13.

Take `NC(Cc1ccccc1)C(=O)[O-]` (stereo not drawn): the pKa (basic group) was 9.17.

Turning to `CN(C)/C=N/c1cccc([N+](=O)[O-])c1`, the pKa (basic group) came to 7.29.

For the setting “basic group”, `Cc1cc(C)c2nccc(NCCC[NH+](C)C)c2c1[N+](=O)[O-]` had a pKa of 6.37.

`CCS(=O)O`: the pKa (acidic group) was 2.27.

For `CC1([NH3+])C[C@]1(C)N` (stereo partly drawn), where the note is “basic group”, the pKa amounted to 5.94.

The molecule `COC(=O)C1CCCN(C)C1` (stereo not drawn) returned a pKa (basic group) of 8.45.

Under “basic group”, `OC(CN1CCOCC1)C[NH+]1CCOCC1` gave a pKa of 5.

On to `COc1ccc2c3c1O[C@H]1CCC[C@H]4[C@H](NCC[C@]314)[C@H]2O`, for which the pKa (basic group) is 8.72.

Take `c1c[nH+]c(Cc2nc(Cc3c[nH]c[nH+]3)c[nH]2)[nH]1`: the pKa (basic group) was 3.94.

Under “acidic group”, `O=C(O)C[NH+](CCNS(=O)(=O)c1ccccc1)CC(=O)O` gave a pKa of 2.1.

With `Cn1/c(=N/N)ccc2ccccc21`, the pKa (basic group) came to 9.17.

Turning to `CN(c1ccccc1)C1CCCCC1`, where the note is “basic group”, the pKa was 6.35.

On to `CCN(C)CCOCCN(CC)CC`, for which, under “basic group”, the pKa was 10.1.

`C[N+](C)(C)Cc1cccc(O)c1O` came in with a pKa (acidic group) of 8.1.

Molecule `CC1(C)O[C@@H]2CC(=O)OC[C@]23[C@@H]1CC(=O)[C@@]1(C)[C@H]3C[C@](C)(CC2CCOC2)C[C@]12O[C@H]2C(=O)O` (stereo partly drawn) registered a pKa (acidic group) of 2.7.
